“And” between values parts separate entries of the source, which are not always exact repeats. Equal values may be shown once. Read-outs that look alike come from different tables or passages of the source.
Key:
[1] = Animal weight of tumor-bearing mice
[2] = tested on: TT cells; assay: Growth inhibition (alamarBlue, 96 h); format: cell-based, human; settings: for raw viability signal (Source Data Fig. 3b-c): replicate sets
[3] = tested on: Ba/F3 cells expressing KIF5B–RET^G810R; assay: Growth inhibition assay in Ba/F3 cells (CellTiter-Glo, 72 h); format: cell-based; settings: Ba/3-KIF5B-RET-G810R; replicate Sets 1-3
[4] = tested on: Ba/F3-CCDC6::RET; assay: as above; format: cell-based

Question: For `COCc1ccc(NC(=O)c2c(C#CCN3CCOCC3)n(C3(C)CC3)c3ncnc(N)c23)cc1` [Vepafestinib, 4-amino-N-[4-(methoxymethyl)phenyl]-7-(1-methylcyclopropyl)-6-[3-(morpholin-4-yl)prop-1-yn-1-yl]-7H-pyrrolo[2,3-d]pyrimidine-5-carboxamide], which “Animal Weight, Mean” value ([1]; Ba/F3-KIF5B::RET G810R (Fig 8f), Vepafestinib 10 mg/kg BID, day 4) is on record?
Answer: 25.30 g

Question: And the “Animal Weight, Mean” value ([1]; Ba/F3-KIF5B::RET G810R (Fig 8f), Vepafestinib 10 mg/kg BID, day 8)?
Answer: 24.90 g

Question: And the “Animal Weight, Mean” value ([1]; Ba/F3-KIF5B::RET G810R (Fig 8f), Vepafestinib 10 mg/kg BID, day 11)?
Answer: 25.72 g

Question: What about the “Animal Weight, Mean” value ([1]; Ba/F3-KIF5B::RET G810R (Fig 8f), Vepafestinib 10 mg/kg BID, day 15) of the same molecule?
Answer: 25.22 g

Question: What about the “Animal Weight, Mean” value ([1]; Ba/F3-KIF5B::RET G810R (Fig 8g), Vepafestinib 50 mg/kg BID, day 1) of the same molecule?
Answer: 23.9 g

Question: And the “Animal Weight, Mean” value ([1]; Ba/F3-KIF5B::RET G810R (Fig 8g), Vepafestinib 50 mg/kg BID, day 4)?
Answer: 24.7 g

Question: What about the “Animal Weight, Mean” value ([1]; Ba/F3-KIF5B::RET G810R (Fig 8g), Vepafestinib 50 mg/kg BID, day 8) of the same molecule?
Answer: 24.9 g

Question: What about the “Animal Weight, Mean” value ([1]; Ba/F3-KIF5B::RET G810R (Fig 8g), Vepafestinib 50 mg/kg BID, day 11) of the same molecule?
Answer: 24.3 g

Question: What about the “Animal Weight, Mean” value ([1]; Ba/F3-KIF5B::RET G810R (Fig 8g), Vepafestinib 50 mg/kg BID, day 15) of the same molecule?
Answer: 24.2 g

Question: And the “Animal Weight (g), Mean” value ([1]; Ba/F3-KIF5B::RET tumor-bearing mice (Ext. Data Fig 8i), 50 mg/kg BID, day 1)?
Answer: 25.8 g

Question: What about the “Animal Weight (g), Mean” value ([1]; Ba/F3-KIF5B::RET tumor-bearing mice (Ext. Data Fig 8i), 50 mg/kg BID, day 4) of the same molecule?
Answer: 26.2 g

Question: And the “Animal Weight (g), Mean” value ([1]; Ba/F3-KIF5B::RET tumor-bearing mice (Ext. Data Fig 8i), 50 mg/kg BID, day 8)?
Answer: 26.0 g

Question: What about the “Animal Weight (g), Mean” value ([1]; Ba/F3-KIF5B::RET tumor-bearing mice (Ext. Data Fig 8i), 50 mg/kg BID, day 11) of the same molecule?
Answer: 25.3 g

Question: And the “Animal Weight (g), Mean” value ([1]; Ba/F3-KIF5B::RET tumor-bearing mice (Ext. Data Fig 8i), 50 mg/kg BID, day 15)?
Answer: 26.9 g

Question: And the “Animal Weight (g), Mean” value ([1]; Ba/F3-KIF5B::RET tumor-bearing mice (Ext. Data Fig 8h), 50 mg/kg BID, day 1)?
Answer: 28.4 g

Question: What about the “Animal Weight (g), Mean” value ([1]; Ba/F3-KIF5B::RET tumor-bearing mice (Ext. Data Fig 8h), 50 mg/kg BID, day 4) of the same molecule?
Answer: 28.5 g

Question: And the “Animal Weight (g), Mean” value ([1]; Ba/F3-KIF5B::RET tumor-bearing mice (Ext. Data Fig 8h), 50 mg/kg BID, day 8)?
Answer: 29.3 g

Question: What about the “Animal Weight (g), Mean” value ([1]; Ba/F3-KIF5B::RET tumor-bearing mice (Ext. Data Fig 8h), 50 mg/kg BID, day 11) of the same molecule?
Answer: 29.0 g

Question: What about the “Animal Weight (g), Mean” value ([1]; Ba/F3-KIF5B::RET tumor-bearing mice (Ext. Data Fig 8h), 50 mg/kg BID, day 15) of the same molecule?
Answer: 29.0 g

Question: What about the “effect on animal health or animal weight” value ([1]; ECLC5B xenograft, all dosages, P > 0.05) of the same molecule?
Answer: No dosage of vepafestinib had any adverse effect

Question: And the “Animal Weight” value ([1]; ECLC5 Xenografts, 25 mg/kg BID, treatment day 7, individual animals, 25 mg/kg)?
Answer: 24 g (2×) and 22 g and 21 g and 27 g

Question: What about the “Animal Weight” value ([1]; ECLC5 Xenografts, 25 mg/kg BID, treatment day 11, individual animals, 25 mg/kg) of the same molecule?
Answer: 24 g and 22 g

Question: And the “Animal Weight” value ([1]; ECLC5 Xenografts, 50 mg/kg BID, treatment day 7, individual animals, 50 mg/kg)?
Answer: 20 g and 23 g (2×) and 21 g and 22 g

Question: What about the “Animal Weight” value ([1]; ECLC5 Xenografts, 50 mg/kg QD, treatment day 7, individual animals, 50 mg/kg) of the same molecule?
Answer: 22 g (2×) and 21 g and 23 g and 24 g

Question: What about the “Animal Weight” value ([1]; ECLC5 Xenografts, 100 mg/kg QD, treatment day 7, individual animals, 100 mg/kg) of the same molecule?
Answer: 22 g (3×) and 24 g and 25 g

Question: And the “Animal Weight (g), Mean” value ([1]; LC-2/ad xenograft mice, 25 mg/kg BID, day 0)?
Answer: 25.9 g

Question: What about the “Animal Weight (g), Mean” value ([1]; LC-2/ad xenograft mice, 25 mg/kg BID, day 4) of the same molecule?
Answer: 25.1 g

Question: And the “Animal Weight (g), Mean” value ([1]; LC-2/ad xenograft mice, 25 mg/kg BID, day 8)?
Answer: 24.6 g

Question: What about the “Animal Weight (g), Mean” value ([1]; LC-2/ad xenograft mice, 25 mg/kg BID, day 11) of the same molecule?
Answer: 24.4 g

Question: What about the “Animal Weight (g), Mean” value ([1]; LC-2/ad xenograft mice, 25 mg/kg BID, day 15) of the same molecule?
Answer: 23.5 g

Question: What about the “Animal Weight (g), Mean” value ([1]; LC-2/ad xenograft mice, 50 mg/kg BID, day 0) of the same molecule?
Answer: 25.1 g

Question: And the “Animal Weight (g), Mean” value ([1]; LC-2/ad xenograft mice, 50 mg/kg BID, day 4)?
Answer: 25.3 g

Question: What about the “Animal Weight (g), Mean” value ([1]; LC-2/ad xenograft mice, 50 mg/kg BID, day 8) of the same molecule?
Answer: 24.2 g

Question: And the “Animal Weight (g), Mean” value ([1]; LC-2/ad xenograft mice, 50 mg/kg BID, day 11)?
Answer: 24.4 g

Question: And the “Animal Weight (g), Mean” value ([1]; LC-2/ad xenograft mice, 50 mg/kg BID, day 15)?
Answer: 23.5 g

Question: And the “Animal Weight (g), Mean” value ([1]; LC-2/ad xenograft mice, 50 mg/kg QD, day 0)?
Answer: 25.0 g

Question: And the “Animal Weight (g), Mean” value ([1]; LC-2/ad xenograft mice, 50 mg/kg QD, day 4)?
Answer: 24.8 g

Question: What about the “Animal Weight (g), Mean” value ([1]; LC-2/ad xenograft mice, 50 mg/kg QD, day 8) of the same molecule?
Answer: 24.7 g

Question: And the “Animal Weight (g), Mean” value ([1]; LC-2/ad xenograft mice, 50 mg/kg QD, day 11)?
Answer: 25.0 g

Question: And the “Animal Weight (g), Mean” value ([1]; LC-2/ad xenograft mice, 50 mg/kg QD, day 15)?
Answer: 24.3 g

Question: And the Animal Weight ([1]; NIH-3T3-CCDC6::RET xenografts, 25 mg/kg BID, day 0, 25 mg/kg)?
Answer: 22 g and 21 g and 24 g

Question: And the Animal Weight ([1]; NIH-3T3-CCDC6::RET xenografts, 25 mg/kg BID, day 2, 25 mg/kg)?
Answer: 23 g and 21 g and 22 g

Question: And the Animal Weight ([1]; NIH-3T3-CCDC6::RET xenografts, 25 mg/kg BID, day 5, 25 mg/kg)?
Answer: 23 g and 22 g and 24 g

Question: And the Animal Weight ([1]; NIH-3T3-CCDC6::RET xenografts, 25 mg/kg BID, day 8, 25 mg/kg)?
Answer: 23 g and 22 g

Question: And the Animal Weight ([1]; NIH-3T3-CCDC6::RET xenografts, 25 mg/kg QD, day 0, 25 mg/kg)?
Answer: 24 g and 22 g and 23 g and 21 g

Question: And the Animal Weight ([1]; NIH-3T3-CCDC6::RET xenografts, 25 mg/kg QD, day 2, 25 mg/kg)?
Answer: 25 g and 24 g and 22 g

Question: And the Animal Weight ([1]; NIH-3T3-CCDC6::RET xenografts, 25 mg/kg QD, day 5, 25 mg/kg)?
Answer: 22 g and 23 g and 24 g

Question: What about the Animal Weight ([1]; NIH-3T3-CCDC6::RET xenografts, 25 mg/kg QD, day 8, 25 mg/kg) of the same molecule?
Answer: 25 g and 23 g and 24 g

Question: And the Animal Weight ([1]; NIH-3T3-CCDC6::RET xenografts, 50 mg/kg BID, day 0, 50 mg/kg)?
Answer: 22 g and 19 g and 21 g

Question: And the Animal Weight ([1]; NIH-3T3-CCDC6::RET xenografts, 50 mg/kg BID, day 2, 50 mg/kg)?
Answer: 20 g and 24 g and 23 g and 21 g and 22 g

Question: And the Animal Weight ([1]; NIH-3T3-CCDC6::RET xenografts, 50 mg/kg BID, day 5, 50 mg/kg)?
Answer: 21 g and 24 g and 23 g and 20 g

Question: And the Animal Weight ([1]; NIH-3T3-CCDC6::RET xenografts, 50 mg/kg BID, day 8, 50 mg/kg)?
Answer: 21 g and 23 g and 24 g

Question: What about the Animal Weight ([1]; NIH-3T3-CCDC6::RET xenografts, 50 mg/kg QD, day 0, 50 mg/kg) of the same molecule?
Answer: 22 g and 21 g

Question: What about the Animal Weight ([1]; NIH-3T3-CCDC6::RET xenografts, 50 mg/kg QD, day 2, 50 mg/kg) of the same molecule?
Answer: 24 g and 23 g

Question: What about the Animal Weight ([1]; NIH-3T3-CCDC6::RET xenografts, 50 mg/kg QD, day 5, 50 mg/kg) of the same molecule?
Answer: 23 g and 24 g

Question: What about the Animal Weight ([1]; NIH-3T3-CCDC6::RET xenografts, 50 mg/kg QD, day 8, 50 mg/kg) of the same molecule?
Answer: 24 g and 25 g

Question: And the Animal Weight ([1]; NIH-3T3-CCDC6::RET xenografts, 100 mg/kg QD, day 0, 100 mg/kg)?
Answer: 22 g and 21 g and 20 g and 19 g

Question: And the Animal Weight ([1]; NIH-3T3-CCDC6::RET xenografts, 100 mg/kg QD, day 2, 100 mg/kg)?
Answer: 23 g and 22 g and 19 g

Question: And the Animal Weight ([1]; NIH-3T3-CCDC6::RET xenografts, 100 mg/kg QD, day 5, 100 mg/kg)?
Answer: 23 g and 22 g and 24 g and 21 g

Question: What about the Animal Weight ([1]; NIH-3T3-CCDC6::RET xenografts, 100 mg/kg QD, day 8, 100 mg/kg) of the same molecule?
Answer: 23 g and 22 g and 24 g and 21 g

Question: And the “raw viability signal (Source Data Fig. 3b-c)” value (“raw viability signal” below) ([2]; 0.01 nM)?
Answer: 22992.9 and 26706 and 26833.9 and 13728.7 and 29403.6

Question: And the “raw viability signal” value ([2]; 0.1 nM)?
Answer: 22728 and 26400.4 and 33154.7 and 10987.6 and 26655.8

Question: And the “raw viability signal” value ([2]; 1 nM)?
Answer: 22046.8 and 26424.3 and 31146.9 and 10280.3 and 23063

Question: What about the “raw viability signal” value ([2]; 10 nM) of the same molecule?
Answer: 18366.2 and 23539.3 and 23168.9 and 8667.42 and 19947.5

Question: And the “raw viability signal” value ([2]; 100 nM)?
Answer: 10434.7 and 14002.8 and 12336.3 and 4688.9 and 15375.8

Question: And the “raw viability signal” value ([2]; 1000 nM)?
Answer: 10759 and 11509.2 and 9437.03 and 4745.5 and 14900.8

Question: And the “raw viability signal” value ([2]; 10000 nM)?
Answer: 11538.8 and 12388.7 and 14343.9 and 2691.86 and 17063

Question: What about the IC50 ([2]; Homo sapiens, 96 h, read-out: IC50 for Inhibition of Growth (95% CI)) of the same molecule?
Answer: 24 nM

Question: And the GI50 [3]?
Answer: 24.2 nM and 46.7 nM

Question: And the GI50 ([4]; BaF3/CCDC6-RET, 72 h, read-out: GI50 value (Mean ± SD), Ba/F3-CCDC6::RET, CellTiter-Glo, 72 h)?
Answer: 22 ± 9.3 nM

Question: What about the GI50 ([4]; read-out: GI50 values, Ba/F3-CCDC6::RET, individual sets (replicate experiments)) of the same molecule?
Answer: 14 nM and 32.2 nM and 19.9 nM
